In ChEMBL document CHEMBL1201862, “PubChem BioAssay data set” (2004):
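Following 48 hours of exposure in 96-well plates, responses at five concentrations were used to interpolate endpoints linearly. At the GI50, growth is halved.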 The source made the active and inactive calls. Rule as the data show it: active = GI50 up to about 1.1 µM and inactive = higher.

What was measured:
Assay in all cases: inhibition of tumour cell growth, NCI panel, 48 h
OVCAR-8 = system: OVCAR-8
DU-145 = system: DU-145
OVCAR-5 = system: OVCAR-5
TK-10 = system: TK-10
U-251 = system: U-251
NCI-H522 = system: NCI-H522
SW-620 = system: SW-620
MCF7 = system: MCF7
HT-29 = system: HT-29
A498 = system: A498
MDA-MB-435 = system: MDA-MB-435
NCI-H460 = system: NCI-H460
PC-3 = system: PC-3
ACHN = system: ACHN
NCI/ADR-RES = system: NCI/ADR-RES
786-0 = system: 786-0
CAKI-1 = system: CAKI-1
HOP-92 = system: HOP-92
NCI-H23 = system: NCI-H23
IGROV-1 = system: IGROV-1
OVCAR-3 = system: OVCAR-3
HCC 2998 = system: HCC 2998
SR = system: SR
MDA-MB-231 = system: MDA-MB-231
Malme-3M = system: Malme-3M
HCT-15 = system: HCT-15
KM12 = system: KM12
RPMI-8226 = system: RPMI-8226
SNB-19 = system: SNB-19
SF-268 = system: SF-268
SF-295 = system: SF-295
K562 = system: K562
MDA-N = system: MDA-N
SK-MEL-28 = system: SK-MEL-28
UACC-257 = system: UACC-257
BT-549 = system: BT-549
COLO 205 = system: COLO 205
SN12C = system: SN12C
Hs-578T = system: Hs-578T
M14 = system: M14
HOP-62 = system: HOP-62
SK-MEL-2 = system: SK-MEL-2
HL-60 = system: HL-60
UO-31 = system: UO-31
OVCAR-4 = system: OVCAR-4
SF-539 = system: SF-539
MOLT-4 = system: MOLT-4
UACC-62 = system: UACC-62
A549 = system: A549
SK-MEL-5 = system: SK-MEL-5
EKVX = system: EKVX
LOX IMVI = system: LOX IMVI
HCT-116 = system: HCT-116
NCI-H226 = system: NCI-H226
RXF 393 = system: RXF 393

Compound: CC(C)(C)OC(=O)CN1C(=O)CC1CC(=O)c1ccccc1 (stereo not given)
- GI50 (OVCAR-8): 17.3 µM (inactive)
- GI50 (DU-145): 17.9 µM (inactive)
- GI50 (OVCAR-5): 17.5 µM (inactive)
- GI50 (TK-10): 30.2 µM (inactive)
- GI50 (U-251): 16 µM (inactive)
- GI50 (NCI-H522): 15.5 µM (inactive)
- GI50 (SW-620): 3.58 µM (inactive)
- GI50 (MCF7): 12.4 µM (inactive)
- GI50 (HT-29): 17.2 µM (inactive)
- GI50 (A498): 27.4 µM (inactive)
- GI50 (MDA-MB-435): 18.9 µM (inactive)
- GI50 (NCI-H460): 26.7 µM (inactive)
- GI50 (PC-3): 17.2 µM (inactive)
- GI50 (ACHN): 21.2 µM (inactive)
- GI50 (NCI/ADR-RES): 35.1 µM (inactive)
- GI50 (786-0): 17.5 µM (inactive)
- GI50 (CAKI-1): 22.4 µM (inactive)
- GI50 (HOP-92): 37.4 µM (inactive)
- GI50 (NCI-H23): 18.5 µM (inactive)
- GI50 (IGROV-1): 18.3 µM (inactive)
- GI50 (OVCAR-3): 18.4 µM (inactive)
- GI50 (HCC 2998): 23.5 µM (inactive)
- GI50 (SR): 2.89 µM (inactive)
- GI50 (MDA-MB-231): 17.2 µM (inactive)
- GI50 (Malme-3M): 17.3 µM (inactive)
- GI50 (HCT-15): 18.2 µM
- GI50 (KM12): 20 µM (inactive)
- GI50 (RPMI-8226): 3.05 µM (inactive)
- GI50 (SNB-19): 19.8 µM (inactive)
- GI50 (SF-268): 17.9 µM (inactive)
- GI50 (SF-295): 26.9 µM (inactive)
- GI50 (K562): 4.14 µM (inactive)
- GI50 (MDA-N): 20.3 µM (inactive)
- GI50 (SK-MEL-28): 19.5 µM (inactive)
- GI50 (UACC-257): 18.2 µM (inactive)
- GI50 (BT-549): 18.2 µM (inactive)
- GI50 (COLO 205): 26.6 µM (inactive)
- GI50 (SN12C): 23.2 µM (inactive)
- GI50 (Hs-578T): 26.1 µM (inactive)
- GI50 (M14): 16.3 µM (inactive)
- GI50 (HOP-62): 17 µM (inactive)
- GI50 (SK-MEL-2): 16.8 µM (inactive)
- GI50 (HL-60): 20 µM (inactive)
- GI50 (UO-31): 17.2 µM (inactive)
- GI50 (OVCAR-4): 30.5 µM (inactive)
- GI50 (SF-539): 19.4 µM (inactive)
- GI50 (MOLT-4): 4.39 µM (inactive)
- GI50 (UACC-62): 19.3 µM (inactive)
- GI50 (A549): > 100 µM (inactive)
- GI50 (SK-MEL-5): 18.2 µM (inactive)
- GI50 (EKVX): 17.2 µM (inactive)
- GI50 (LOX IMVI): 16.9 µM (inactive)
- GI50 (HCT-116): 24.8 µM (inactive)
- GI50 (NCI-H226): 25.1 µM (inactive)
- GI50 (RXF 393): 18.5 µM (inactive)
